Data reported in patent US8992982B2, “Formulation of indomethacin” (Iceutica Pty Ltd., priority 2009, dated 2015).

Test system: pain after surgical removal of impacted third molars
Test: Phase 2 dental pain study: VAS pain intensity (VAS score, VASPID, VASSPID)
Format: in vivo, human
Set-up: VASPID, Median / VASPID, Mean / VAS pain intensity score, Median / VASSPID-8, Median: scale not given here
Description: On Day 1, eligible subjects underwent extraction of 2 or more third molars, at least 1 of which had to be a fully or partially bone-impacted mandibular molar. If only 2 molars were removed, then they had to be ipsilateral.
Subjects assessed their baseline pain intensity (VAS) before receiving study drug (predose, Time 0) and their pain intensity (VAS) and pain relief (5-point categorical scale) at 15, 30, and 45 minutes and 1, 1.5, 2, 3, 4, 5, 6, 7, and 8 hours after Time 0 and immediately before the first dose of rescue medication. The 2-stopwatch method was used to record the time to perceptible and time to meaningful pain relief, respectively. Acetaminophen (1000 mg) was permitted as the initial rescue medication. Subjects were encouraged to wait at least 60 minutes after receiving study drug before taking rescue medication. […] Other restrictions included the following: no alcohol use from 24 hours before surgery until discharge on Day 1; nothing by mouth (NPO) from midnight before surgery until 1 hour after surgery; clear liquids only from 1 hour after surgery until 1 hour after dosing; and advancement of diet 1 hour after dosing according to standard practice.
The secondary efficacy endpoints were as follows: • TOTPAR over 0 to 4 hours (TOTPAR-4) after Time 0 • Visual Analogue Scale (VAS) pain intensity difference (VASPID) at each scheduled time point after Time 0 • Time to onset of analgesia (measured as time to perceptible pain relief confirmed by meaningful pain relief) • VAS pain intensity score at each scheduled time point • VAS summed pain intensity difference (VASSPID) over 0 to 4 hours (VASSPID-4) and over 0 to 8 hours (VASSPID-8) after Time 0 • Pain relief score at each scheduled time point after Time 0 • Peak pain relief • Time to peak pain relief • Time to first perceptible pain relief • Time to meaningful pain relief • Proportion of subjects using rescue medication • Time to first use of rescue medication (duration of analgesia) • Patient's global evaluation of study drug Safety:
For continuous secondary endpoints such as pain intensity score, VASPID at each scheduled time point, peak pain intensity, TOTPAR-4, VASSPID-4, and VASSPID-8, descriptive statistics (e.g., mean, standard error, median, minimum, and maximum) were provided for each treatment regimen. Nominal P values from 2-sample tests comparing the placebo group with other treatment groups were provided, but no formal statistical inferences were drawn on the basis of these tests.
For pain intensity, missing observations were imputed using a baseline-observation-carried-forward (BOCF) approach for subjects who withdrew from the study due to lack of efficacy or an AE/intolerance to study drug. The BOCF imputation was applied in place of all scheduled assessments after the time of early termination due to lack of efficacy or an AE/intolerance to study drug using the baseline observation taken before Time 0.
For subjects who withdrew from the study for reasons other than lack of efficacy or an AE/intolerance to study drug, missing observations for pain intensity and pain relief were imputed using a last-observation-carried-forward (LOCF) approach. The LOCF imputation was applied in place of all scheduled assessments after the time of early termination for reasons other than lack of efficacy or an AE/intolerance to study drug.
For subjects who took any dose of rescue medication, subsequent measures after the first dose of rescue mediation were disregarded. Instead, all scheduled assessments after the first dose of rescue medication were imputed using BOCF and the baseline observation taken before Time 0. (Baseline value for pain relief was 0.)

[1] = 15 minutes after Time 0, ITT, 100-mm VAS

Cc1ccc(-c2cc(C(F)(F)F)nn2-c2ccc(S(N)(=O)=O)cc2)cc1 [Celecoxib]
VASSPID-4, Mean (SD) (0 to 4 hours after Time 0, ITT): 127.971 (99.1934) | VASSPID-4, Median (0 to 4 hours after Time 0, ITT): 140.250 | VASSPID-8, Mean (SD) (0 to 8 hours after Time 0, ITT): 284.265 (229.4447) | VASSPID-8, Median (0 to 8 hours after Time 0, ITT): 346.500 | VAS pain intensity score, Median (15 minutes after Time 0, ITT): 71.00 | VASPID, Median (15 minutes after Time 0, ITT): 1.00 | VAS pain intensity score, Mean [1]: 70.55 | VASPID, Mean [1]: 3.35 | VAS pain intensity score, Mean (30 minutes after Time 0, ITT): 67.25 | VAS pain intensity score, Median (30 minutes after Time 0, ITT): 66.00 | VASPID, Mean (30 minutes after Time 0, ITT): 6.65 | VASPID, Median (30 minutes after Time 0, ITT): 3.00 | VAS pain intensity score, Mean (45 minutes after Time 0, ITT): 57.47 | VAS pain intensity score, Median (45 minutes after Time 0, ITT): 61.00 | VASPID, Mean (45 minutes after Time 0, ITT): 16.43 | VASPID, Median (45 minutes after Time 0, ITT): 10.00 | VAS pain intensity score, Mean (1 hour after Time 0, ITT): 49.08 | VAS pain intensity score, Median (1 hour after Time 0, ITT): 50.00 | VASPID, Mean (1 hour after Time 0, ITT): 24.82 | VASPID, Median (1 hour after Time 0, ITT): 17.00 | VAS pain intensity score, Mean (2 hours after Time 0, ITT): 36.65 | VAS pain intensity score, Median (2 hours after Time 0, ITT): 36.00 | VASPID, Mean (2 hours after Time 0, ITT): 37.25 | VASPID, Median (2 hours after Time 0, ITT): 32.00 | VAS pain intensity score, Mean (3 hours after Time 0, ITT): 32.29 | VAS pain intensity score, Median (3 hours after Time 0, ITT): 28.00 | VASPID, Mean (3 hours after Time 0, ITT): 41.61 | VASPID, Median (3 hours after Time 0, ITT): 50.00 | VAS pain intensity score, Mean (4 hours after Time 0, ITT): 33.94 | VAS pain intensity score, Median (4 hours after Time 0, ITT): 25.00 | VASPID, Mean (4 hours after Time 0, ITT): 39.96 | VASPID, Median (4 hours after Time 0, ITT): 46.00 | VAS pain intensity score, Mean (5 hours after Time 0, ITT): 33.69 | VAS pain intensity score, Median (5 hours after Time 0, ITT): 22.00 | VASPID, Mean (5 hours after Time 0, ITT): 40.22 | VASPID, Median (5 hours after Time 0, ITT): 50.00 | VAS pain intensity score, Mean (6 hours after Time 0, ITT): 35.06 | VAS pain intensity score, Median (6 hours after Time 0, ITT): 20.00 | VASPID, Mean (6 hours after Time 0, ITT): 38.84 | VASPID, Median (6 hours after Time 0, ITT): 50.00 | VAS pain intensity score, Mean (7 hours after Time 0, ITT): 35.55 | VAS pain intensity score, Median (7 hours after Time 0, ITT): 21.00 | VASPID, Mean (7 hours after Time 0, ITT): 38.35 | VASPID, Median (7 hours after Time 0, ITT): 44.00 | VAS pain intensity score, Mean (8 hours after Time 0, ITT): 35.02 | VAS pain intensity score, Median (8 hours after Time 0, ITT): 22.0 | VASPID, Mean (8 hours after Time 0, ITT): 38.88 | VASPID, Median (8 hours after Time 0, ITT): 49.00 | VAS pain intensity score, Mean ([…] after Time 0, ITT): 43.98 | VAS pain intensity score, Median ([…] after Time 0, ITT): 48.00 | VASPID, Mean ([…] after Time 0, ITT): 29.92 | VASPID, Median ([…] after Time 0, ITT): 26.00 | Time point from which mean VASPID was statistically significantly greater and mean VAS pain intensity less than placebo (onward after Time 0): ≥ 30 min
